# Measurements as given in US9314498B2, “Bacteriocin derived from Lactobacillus rhamnosus” (priority 2011, dated 2016).
# Where no end group is shown, it is not given here.
# What was measured:
# [1] = system: Candida albicans GDH18 strain; assay: Antimicrobial activity (CFU count, percentage of living cells) against Candida albicans GDH18; type: cell-based; settings: 37° C., 90 minutes, 1 mM phosphate buffer
# Description: As the Candida, cariogenic bacteria and periodontal disease bacteria, the Candida albicans GDH18 strain, Streptococcus sobrinus B-13 strain, Streptococcus mutans NCTC10449 strain, Streptococcus mutans Ingbritt strain, Porphyromonas gingivalis Hudoi001 strain and Aggregatibacter actinomycetemcomitans Hudoe001 strain were used. The test strains were provided from Faculty of Dentistry, Hiroshima University, Japan, and Hiroshima University Dental Hospital.
# (§1) The Candida albicans GDH18 strain was precultured using SD medium (Difco) at 37° C. for 24 hours under aerobic conditions. The Streptococcus sobrinus B-13 strain, Streptococcus mutans NCTC10449 strain and Streptococcus mutans Ingbritt strain were precultured using TSB medium (Difco) supplemented with 5% yeast extract (Difco) at 37° C. for 24 hours under aerobic conditions. The Porphyromonas gingivalis Hudoi001 strain and Aggregatibacter actinomycetemcomitans Hudoe001 strain were precultured using BHI medium (Difco) supplemented with hemin (5 mg/L) and vitamin K3 (1 mg/L) at 37° C. for 96 hours under anaerobic conditions with Anaero Pack System (Mitsubishi Gas Chemical Company, Inc.).
# (§2) After the culture, the cells of the Candida, cariogenic bacteria and periodontal disease bacteria were collected by centrifugation at 1000×g, and washed twice with 1 mM phosphate buffer (pH 6.8). The cells were then suspended such that the final concentration was 1×10^8 cfu/ml or 1×10^7 cells/m. For suspension of the Streptococcus strains, ultrasonic treatment was also carried out.
# (§3) Evaluation of the antimicrobial activity was carried out by the method by Edgerton and others (1998) with some modifications. With 20 mL of 1 mM phosphate buffer containing 0 to 25 μM Kog1 or Kog2 synthesized in Example 1, 20 μl of the suspension of the Candida albicans GDH18 strain cultured and prepared by the method described in the above Preparation Example was mixed, and the resulting mixture was incubated at 37° C. for 90 minutes with shaking. As a control, 20 ml of 1 mM phosphate buffer alone was used. The reaction was stopped by addition of 360 ml of YNB medium (Difco), and the number of colonies formed (colony forming units; CFUs) was counted together with the number of colonies in the control, to determine the percentage of living bacterial cells. That is, the equation of: (CFUs of suspension containing Kog1 or Kog2/CFU ml^−1 of control suspension)×100 was used to calculate the percentage.
# [2] = system: Streptococcus sobrinus B-13 strain; assay: Antimicrobial activity against Streptococcus sobrinus B-13; type: cell-based; settings: tested 0 to 100 μM
# Description: [The procedure below names another organism; the source lists this organism under the same test.] as §1, §2
# as §3, with “percentage. […]” for “percentage.”
# [3] = well known basic antimicrobial peptide, literature; cited from earlier work
# [4] = Measurement of the isoelectric point of the synthesized peptides; type: physicochemical; settings: synthesized peptide
# Description: Among antimicrobial peptides, hBD2 (human P-defensin-2 (see Eur J., 2002, Oral Sci. (109), 121-124)) is well known as a basic antimicrobial peptide, and has an isoelectric point of about 10. However, the isoelectric points of Kog1 and Kog2 of the embodiment 2 were higher than the isoelectric point of hBD2, and more similar to the isoelectric points of antimicrobial peptides derived from mammals. Thus, Kog1 and Kog2 were confirmed to have less cytotoxicity.
# [5] = system: Streptococcus mutans NCTC10449 strain; assay: Antimicrobial activity against Streptococcus mutans NCTC10449; type: cell-based; settings: 0 to 100 μM, FIG. 4
# [6] = system: Streptococcus mutans Ingbritt strain; assay: Antimicrobial activity against Streptococcus mutans Ingbritt; type: cell-based; settings: 0 to 100 μM, FIG. 5
# [7] = system: Porphyromonas gingivalis Hudoi001 strain; assay: Antimicrobial activity against Porphyromonas gingivalis Hudoi001; type: cell-based; settings: not shown in the figures
# Description: as §1, §2
# That is, it is assumed that, in Examples described in Patent Literature 1, the Lactobacillus rhamnosus KO3 strain expressed Kog1 and Kog2, and the expressed Kog1 and Kog2 exerted antimicrobial activity against the Porphyromonas gingivalis Hudoi001 strain. […]
# [8] = system: Aggregatibacter actinomycetemcomitans Hudoe001 strain; assay: Antimicrobial activity against Aggregatibacter actinomycetemcomitans Hudoe001; type: cell-based; settings: tested 0 to 50 μM
# [9] = system: Porphyromonas gingivalis LPS (P.g-LPS) on RAW264.7 macrophage-like cells, ccl2; assay: LPS inactivation: ccl2 secretion of RAW264.7 cells (ELISA); type: cell-based, mouse; settings: 100 ng/ml P.g-LPS preincubated 2 hours with 5, 10, 20 μM Kog1; as amount added increased
# Description: (§4) As a medium, RPMI 1640 medium supplemented with 10% FBS (Fetal Bovine Serum) (Biological industries, Haemek, Israel), 1% antibiotic and 1% L-glutamine was used. In each well of a 24-well plate, 400 μl of the medium was placed, and 100,000 cells/well of mouse-derived RAW264.7 macrophage-like cells were inoculated thereto.
# (§5) The bacteriocin Kog1 or Kog2, which was the same as in Example 1, was incubated in an Eppendorf tube under each of the following 4 conditions together with Porphyromonas gingivalis LPS (manufactured by InvivoGen) (hereinafter referred to as P.g-LPS) and the same medium as described above, at 37° C. under a gas phase of 5% CO2 for 2 hours: (1) 100 ng/ml P.g-LPS positive control; (2) 100 ng/ml P.g-LPS+5 μM Kog1 or Kog2; (3) 100 ng/ml P.g-LPS+10 μM Kog1 or Kog2; (4) 100 ng/ml P.g-LPS+20 μM Kog1 or Kog2.
# (§6) The above-described medium placed in each well of the 24-well plate was removed using a pipetteman, and the medium in the Eppendorf tube for each of the 4 conditions described above was placed in the plate, followed by culturing the cells in the well plate at 37° C. under a gas phase of 5% CO2 for 12 hours. Thereafter, the culture supernatant was collected, and the amount of a chemokine ccl2 or the amount of a cytokine TNF-α secreted into the medium was quantified by the ELISA method by measuring the absorbance at 450 nm using a microplate reader. Since both ccl2 and TNF-α are involved in formation of inflammation, analysis of the relationship between the endotoxin LPS and the bacteriocins Kog1 and Kog2 is possible.
# [10] = system: Porphyromonas gingivalis LPS (P.g-LPS) on RAW264.7 macrophage-like cells, TNF-α; assay: LPS inactivation: TNF-α secretion of RAW264.7 cells (ELISA); type: cell-based; settings: 100 ng/ml P.g-LPS preincubated 2 hours with 5, 10, 20 μM Kog1; as amount added increased
# Description: as §4, §5, §6
# [11] = system: Candida albicans MYA274 strain; assay: Boiling experiment: antimicrobial activity (ATP) against Candida albicans MYA274; type: cell-based; settings: concluded from supernatant boiled at 100° C. for 20 minutes; peptides not directly used
# Description: In Example 9, antimicrobial activity against the Candida albicans MYA274 strain was investigated. The Candida albicans MYA274 strain was precultured in Sabouraud dextrose broth (Difco) at 37° C. for 24 hours, and then washed twice with MQ water, followed by being prepared such that OD600 is 0.3 (1.0×10^7 cells/ml).
# In Example 9, the bacteriocin Kog1 or Kog2, or the Lactobacillus rhamnosus KO1 strain or KO3 strain, was not directly used. Instead, a lactic acid bacterium medium containing the Lactobacillus rhamnosus KO3 strain, 8020 yogurt (liquid type), was used in the experiment More specifically, the 8020 yogurt (liquid type) was prepared by adding the Lactobacillus rhamnosus KO3 strain at a concentration of 1% and YF-L811 starter at a concentration of 1% to the 15% skim milk+3% glucose medium, and then performing culture at 35° C. for 2 days.
# Such 8020 yogurt (liquid type) was centrifuged to obtain a supernatant from which the lactic acid bacterium was removed (hereinafter referred to as Supernatant B). In the experiment, Supernatant B and a sample prepared by boiling Supernatant B at 100° C. for 20 minutes (hereinafter referred to as Supernatant Boil) were used. […]
# In order to study changes in the antimicrobial activity by boiling, the following 3 kinds of samples were placed in a 24-well plate, and the value of ATP (pmol/L) after 24 hours of incubation at 37° C. was measured. […]
molecule,measurement,setting,value
lactoferricin B: antimicrobial peptide derived from milk (amino acid sequence shown in SEQ ID NO: 5) (FKCRRWQWRMKKLGAPSITCVRRAF; Antimicrobial peptide),peptide concentration at which 100% of the strain was killed,[1],5 µM
"hBD2: human β-defensin-2, well known basic antimicrobial peptide (GIGDPVTCLKSGAICHPVFCPRRYKQIGTCGLPGTKCCKKP; ends and bridges not checked; cysteine pairing not given here; UniProt O15263 24-64, looked up) [reference compound]",peptide concentration at which 100% of the strain was killed,[2],3.125 µM
same,isoelectric point,[3],about 10
C[C@@H]1[C@H](O)[C@@H](C)/C=C/C=C/C=C/C=C/C=C/C=C/C=C/[C@H](O[C@@H]2O[C@H](C)[C@@H](O)[C@H](N)[C@@H]2O)C[C@@H]2O[C@](O)(C[C@@H](O)C[C@@H](O)[C@H](O)CC[C@@H](O)C[C@@H](O)CC(=O)O[C@H]1C)C[C@H](O)[C@H]2C(=O)O [amphotericin B],peptide concentration at which 100% of the strain was killed,[1],5 µM
"Kog1: peptide having the amino acid sequence shown in SEQ ID NO: 1, bacteriocin of Lactobacillus rhamnosus, synthesized by the tea-bag method (MAKARPSRPRPLTLRSLTAPAHAHKKWASRWILSMRLARVFGIEKPHG; listed as Lactobacillus rhamnosus)",isoelectric point (pl),[4],12.90
same,peptide concentration at which 100% of the strain was killed,[1],0.39 µM
same,peptide concentration at which 100% of the strain was killed,[2],1.56 µM
same,"antimicrobial activity compared to the other antimicrobial peptides (hBD2, lysozyme)",[5],capable of killing a larger amount of Streptococcus mutans even at relatively low peptide concentration
same,"antimicrobial activity compared to the other antimicrobial peptides (hBD2, lysozyme)",[6],capable of killing a larger amount of Streptococcus mutans even at relatively low peptide concentration
same,antimicrobial activity,[7],capable of exerting antimicrobial activity
same,peptide concentration at which 100% of the strain was killed,[8],3.13 µM
same,amount of the chemokine ccl2 secreted,[9],decreased
same,amount of the cytokine TNF-α secreted,[10],decreased
same,heat resistance (antimicrobial activity after heating),[11],still maintain antimicrobial activity after heating
JH8194: antimicrobial peptide of JP 3472821 B (amino acid sequence shown in SEQ ID NO: 7) (KRLFRRWQWRMKKY; Antimicrobial peptide),peptide concentration at which 100% of the strain was killed,[1],2.5 µM
histatin 5: antimicrobial peptide derived from human saliva (amino acid sequence shown in SEQ ID NO: 6) (DSHEKRHHGYKRKFHEKHHSHRGY; Antimicrobial peptide),peptide concentration at which 100% of the strain was killed,[1],100 µM
